e = 2'-O-(2-methoxyethyl) (MOE); d = 2'-deoxy (DNA)
Each substance was assayed on human growth hormone receptor mRNA (assay: Inhibition of human growth hormone receptor mRNA levels by antisense oligonucleotides, quantitative real-time PCR, MCF7 cells). Conditions: averages from three experiments.
Assay type: cell-based
Set-up: concentration or dose not given beside the values
Description: “Target site” indicates the first (5′-most) nucleotide number on the particular target sequence to which the oligonucleotide binds. “% Inhib” indicates the inhibitory effect on hGHR mRNA levels by quantitative real-time PCR. Data are averages from three experiments in which MCF7 cells were treated with the antisense oligonucleotides.
All oligonucelotides in Table 1 are chimeric oligonucleotides (“gapmers”), 20 nucleotides in length, composed of a central “gap” region consisting of ten 2′-deoxynucleotides, which is flanked on both sides (5′ and 3′ directions) by five-nucleotide “wings”. The wings are composed of 2′-methoxyethyl (2′-MOE) nucleotides. The internucleoside (backbone) linkages are phosphorothioate (P═S) throughout the oligonucleotide. All uracils are 5-methyluracils (^MeU). Typically, the oligonucleotide is synthesized using 2-methoxyethyl modified thymidines not 5-methyluracils. All pyrimidines are C5 methylated (i.e., U, T, C are C5 methylated).

Substance | % INHIB (inhibitory effect on hGHR mRNA levels)
227453 (antisense CATAATCAGGGCATTCTTTC; sugars from the 5' end e5 d10 e5, all phosphorothioate, methylation of C not given here) [compound 227453] | 52%
227464 (antisense CCTTTAATCTTTGGAACTGG; sugars from the 5' end e5 d10 e5, all phosphorothioate, methylation of C not given here) [compound 227464] | 58%
227468 (antisense TCATCAATATCTAGCTCAAT; sugars from the 5' end e5 d10 e5, all phosphorothioate, methylation of C not given here) [compound 227468] | 62%
227469 (antisense CTTAGAAGTCTGTCTGTGTC; sugars from the 5' end e5 d10 e5, all phosphorothioate, methylation of C not given here) [compound 227469] | 63%
227475 (antisense CCTGCTGGTGTAATGTCGCT; sugars from the 5' end e5 d10 e5, all phosphorothioate, methylation of C not given here) [compound 227475] | 68%
227480 (antisense ATGTAAATGTCCTCTTGGTT; sugars from the 5' end e5 d10 e5, all phosphorothioate, methylation of C not given here) [compound 227480] | 66%
227481 (antisense TGGTGATGTAAATGTCCTCT; sugars from the 5' end e5 d10 e5, all phosphorothioate, methylation of C not given here) [compound 227481] | 45%
227482 (antisense TTCTGTGGTGATGTAAATGT; sugars from the 5' end e5 d10 e5, all phosphorothioate, methylation of C not given here) [compound 227482] | 53%
227483 (antisense AGGCTTTCTGTGGTGATGTA; sugars from the 5' end e5 d10 e5, all phosphorothioate, methylation of C not given here) [compound 227483] | 75%
227484 (antisense TGGTAAGGCTTTCTGTGGTG; sugars from the 5' end e5 d10 e5, all phosphorothioate, methylation of C not given here) [compound 227484] | 63%
227488 (antisense AGTTGGTCTGTGCTCACATA; sugars from the 5' end e5 d10 e5, all phosphorothioate, methylation of C not given here) [compound 227488] | 86%
227489 (antisense TGTTCAGTTGGTCTGTGCTC; sugars from the 5' end e5 d10 e5, all phosphorothioate, methylation of C not given here) [compound 227489] | 75%
227490 (antisense GCATGATTTTGTTCAGTTGG; sugars from the 5' end e5 d10 e5, all phosphorothioate, methylation of C not given here) [compound 227490] | 67%
227499 (antisense TATAAAAGGGCTTTGTAAAA; sugars from the 5' end e5 d10 e5, all phosphorothioate, methylation of C not given here) [compound 227499] | 14%
227500 (antisense CATAGCAGCAAAGTAGCAGA; sugars from the 5' end e5 d10 e5, all phosphorothioate, methylation of C not given here) [compound 227500] | 69%
227501 (antisense GCTATTTTTGGCTATAGAAA; sugars from the 5' end e5 d10 e5, all phosphorothioate, methylation of C not given here) [compound 227501] | 64%
227502 (antisense GATTGAGGTATTTAGCTATT; sugars from the 5' end e5 d10 e5, all phosphorothioate, methylation of C not given here) [compound 227502] | 56%
272302 (antisense GATCCATACCTGTAGGACCT; sugars from the 5' end e5 d10 e5, all phosphorothioate, methylation of C not given here) [compound 272302] | 60%

Substance | % INHIB (inhibitory effect on hGHR mRNA levels)
272303 (antisense CCAGAGATCCATACCTGTAG; sugars from the 5' end e5 d10 e5, all phosphorothioate, methylation of C not given here) [compound 272303] | 55%
272304 (antisense TGCTAAGGATAGCTGCTGTG; sugars from the 5' end e5 d10 e5, all phosphorothioate, methylation of C not given here) [compound 272304] | 48%
272305 (antisense TTGTCTTTAGGCCTGGATTA; sugars from the 5' end e5 d10 e5, all phosphorothioate, methylation of C not given here) [compound 272305] | 68%
272306 (antisense TTAGAAGAATTTGTCTTTAG; sugars from the 5' end e5 d10 e5, all phosphorothioate, methylation of C not given here) [compound 272306] | 13%
272307 (antisense GTGAATTTAGGCTCCTTAGA; sugars from the 5' end e5 d10 e5, all phosphorothioate, methylation of C not given here) [compound 272307] | 55%
272308 (antisense GCTGTATGGGTCCTAGGTTC; sugars from the 5' end e5 d10 e5, all phosphorothioate, methylation of C not given here) [compound 272308] | 57%
272309 (antisense TAACAGCTGTTTTCCCCAGC; sugars from the 5' end e5 d10 e5, all phosphorothioate, methylation of C not given here) [compound 272309] | 85%
272310 (antisense TTTCATCCACTGTACCACCA; sugars from the 5' end e5 d10 e5, all phosphorothioate, methylation of C not given here) [compound 272310] | 76%
272311 (antisense TTGCACTATTTCATCAACAG; sugars from the 5' end e5 d10 e5, all phosphorothioate, methylation of C not given here) [compound 272311] | 47%
272312 (antisense GGGTGGATCTGGTTGCACTA; sugars from the 5' end e5 d10 e5, all phosphorothioate, methylation of C not given here) [compound 272312] | 57%
272313 (antisense ATTGCGTGGTGCTTCCCATC; sugars from the 5' end e5 d10 e5, all phosphorothioate, methylation of C not given here) [compound 272313] | 77%
272314 (antisense TAGGGTCCATCATTTTCCAT; sugars from the 5' end e5 d10 e5, all phosphorothioate, methylation of C not given here) [compound 272314] | 56%
272315 (antisense CAATGAGTACACTGGAACTG; sugars from the 5' end e5 d10 e5, all phosphorothioate, methylation of C not given here) [compound 272315] | 53%
272316 (antisense AACTCGCCATAATTTCCAGA; sugars from the 5' end e5 d10 e5, all phosphorothioate, methylation of C not given here) [compound 272316] | 64%
272317 (antisense AGCCCAAATATTCCAAAGAT; sugars from the 5' end e5 d10 e5, all phosphorothioate, methylation of C not given here) [compound 272317] | 65%
272318 (antisense TCAGCATTTTAATCCTTTGC; sugars from the 5' end e5 d10 e5, all phosphorothioate, methylation of C not given here) [compound 272318] | 55%
272319 (antisense ATTTTCCTTCCTTGAGGAGA; sugars from the 5' end e5 d10 e5, all phosphorothioate, methylation of C not given here) [compound 272319] | 67%
272320 (antisense AGATTGTGTTCACCTCCTCT; sugars from the 5' end e5 d10 e5, all phosphorothioate, methylation of C not given here) [compound 272320] | 70%
